Measured values reported in patent US11878994B1, “Compositions for treatment of inflammation” (Metro International Biotech, LLC, priority 2021, dated 2024).

Legend:
Jurkat cells = test: NAD Elevation Assay (NAD Cellular Assay), Jurkat cells; type: cell-based; details: @ 1 mM, NAD normalized to total protein, multiple of NAD level in untreated cells
Experimental: Compounds were tested in an NAD Cellular Assay according to the following protocol. Jurkat cells (50,000 per in 100 microliters of RPMI media) were added to wells of a 96 well, conical bottomed plate. The cells were allowed to recover for 3 h in culture. A 16 microliter aliquot of a 100 mM compound stock solution was diluted with 784 microliters of medium and 10% FBS to give 800 microliters of a 2 mM compound treatment solution. The compound treatment solution was added to the cells for a final concentration of 1 mM compound (n=6 wells for each compound.) As a parallel control, nicotinamide mononucleotide (NMN) was added to cells at a final concentration of 2 mM (n=6). The plates were incubated for 24 hours, then spun at 1000 rpm for 10 min. The medium was removed, then the cells were washed with fresh PBS and spun again. The PBS medium was removed, then the cells were washed one more time with PBS and spun. The liquid was removed from each well via pipette, avoiding touching the cell pellet. The cells were lysed with 75 microliters of 0.5% DTAB. […] The NAD concentration in each well was determined using a commercially available assay according to the kit instructions (e.g. Promega NAD/NADH-Glo™ Assay.) The Pierce BCA protein assay was run according to the kit instructions (e.g. ThermoScientific Catalog number 23225). […]

NDF Cells = test: NAD Elevation Assay (NAD Cellular Assay), NDF cells; type: cell-based; details: @ 0.25 mM, multiple of NAD level in untreated cells
Experimental: Compounds were tested in an NAD Cellular Assay according to the following protocol. Jurkat cells (50,000 per in 100 microliters of RPMI media) were added to wells of a 96 well, conical bottomed plate. The cells were allowed to recover for 3 h in culture. A 16 microliter aliquot of a 100 mM compound stock solution was diluted with 784 microliters of medium and 10% FBS to give 800 microliters of a 2 mM compound treatment solution. The compound treatment solution was added to the cells for a final concentration of 1 mM compound (n=6 wells for each compound.) As a parallel control, nicotinamide mononucleotide (NMN) was added to cells at a final concentration of 2 mM (n=6). The plates were incubated for 24 hours, then spun at 1000 rpm for 10 min. The medium was removed, then the cells were washed with fresh PBS and spun again. The PBS medium was removed, then the cells were washed one more time with PBS and spun. The liquid was removed from each well via pipette, avoiding touching the cell pellet. The cells were lysed with 75 microliters of 0.5% DTAB. 25 microliters of the lysate was added to each of two flat bottomed plates. One plate was used for a BCA protein assay (clear), and the other plate was used for the NAD assay (clear bottom, white walled). The NAD concentration in each well was determined using a commercially available assay according to the kit instructions (e.g. Promega NAD/NADH-Glo™ Assay.) The Pierce BCA protein assay was run according to the kit instructions (e.g. ThermoScientific Catalog number 23225). NAD levels were normalized to total protein and reported as a multiple of the NAD level in untreated cells.
Assays with other cell types were run similarly, using the appropriate compound and NMN dilutions. Cell counts were adjusted as necessary to provide a signal within the reading range of the protein and NAD assay kits.

| Structure (SMILES) | NAD Elevation Assay (Jurkat cells) | NAD Elevation Assay (NDF Cells) |
| --- | --- | --- |
| Cn1c(=O)c2c(ncn2CCOC(=O)c2ccc[n+]([C@@H]3O[C@H](CO)[C@@H](O)[C@H]3O)c2)n(C)c1=O.O=S(=O)([O-])C(F)(F)F [Compound 2, 1-((2R,3R,4S,5R)-3,4-dihydroxy-5-(hydroxymethyl)tetrahydrofuran-2-yl)-3-((2-(1,3-dimethyl-2,6-dioxo-1,2,3,6-tetrahydro-7H-purin-7-yl)ethoxy)carbonyl)pyridin-1-ium trifluoromethanesulfonate] | 2.9× @ 1 | – |
| Cn1cnc2c1c(=O)n(CCCOC(=O)c1ccc[n+]([C@@H]3O[C@H](COP(=O)([O-])O)[C@@H](O)[C@H]3O)c1)c(=O)n2C [Compound 5P, ((2R,3S,4R,5R)-5-(3-((3-(3,7-dimethyl-2,6-dioxo-2,3,6,7-tetrahydro-1H-purin-1-yl)propoxy)carbonyl)pyridin-1-ium-1-yl)-3,4-dihydroxytetrahydrofuran-2-yl)methyl hydrogen phosphate] | – | 2.2× @ 0.25 |
| Cn1c(=O)c2c(ncn2CC(=O)OCCCOC(=O)c2ccc[n+]([C@@H]3O[C@H](COP(=O)([O-])O)[C@@H](O)[C@H]3O)c2)n(C)c1=O [Compound 6P, ((2R,3S,4R,5R)-5-(3-((3-(2-(1,3-dimethyl-2,6-dioxo-1,2,3,6-tetrahydro-7H-purin-7-yl)acetoxy)propoxy)carbonyl)pyridin-1-ium-1-yl)-3,4-dihydroxytetrahydrofuran-2-yl)methyl hydrogen phosphate] | – | 2.0× @ 0.25 |
| CCCn1cnc2c1c(=O)n(CCOC(=O)c1ccc[n+]([C@@H]3O[C@H](COP(=O)([O-])O)[C@@H](O)[C@H]3O)c1)c(=O)n2C [Compound 7P, ((2R,3 S,4R,5R)-3,4-dihydroxy-5-(3-((2-(3-methyl-2,6-dioxo-7-propyl-2,3,6,7-tetrahydro-1H-purin-1-yl)ethoxy)carbonyl)pyridin-1-ium-1-yl)tetrahydrofuran-2-yl)methyl hydrogen phosphate] | – | 1.9× @ 0.25 |
